Reference: the supplement of paper PMC13380429

Key:
Conditions in all cases: 72 h
[1] = test system: Caco-2; assay: cell viability relative to DMSO; higher = less toxic
[2] = test system: Calu-3; assay: as above
[3] = test system: HepG2; assay: as above
[4] = test system: U2OS; assay: as above
[5] = test system: Caco-2; assay: relative viability EC50 (midpoint between 100% and the lowest measured viability); higher = less toxic
[6] = test system: Calu-3; assay: as above
[7] = test system: HepG2; assay: as above
[8] = test system: U2OS; assay: as above
[9] = test system: Caco-2; assay: drug sensitivity score (DSS) for viability; higher = more toxic; extreme values may be limits of the assay
[10] = test system: Calu-3; assay: as above
[11] = test system: HepG2; assay: as above
[12] = test system: U2OS; assay: as above
[13] = test system: Vero E6; assay: cell viability relative to DMSO; higher = less toxic
[14] = test system: Vero E6; assay: relative viability EC50 (midpoint between 100% and the lowest measured viability); higher = less toxic
[15] = test system: Vero E6; assay: drug sensitivity score (DSS) for viability; higher = more toxic; extreme values may be limits of the assay

| Structure (SMILES) | cell viability ([1]; 1 nM) [%] | cell viability ([1]; 10 nM) [%] | cell viability ([1]; 100 nM) [%] | cell viability ([1]; 1000 nM) [%] | cell viability ([1]; 10000 nM) [%] | cell viability ([2]; 1 nM) [%] | cell viability ([2]; 10 nM) [%] | cell viability ([2]; 100 nM) [%] | cell viability ([2]; 1000 nM) [%] | cell viability ([2]; 10000 nM) [%] | cell viability ([3]; 1 nM) [%] | cell viability ([3]; 10 nM) [%] | cell viability ([3]; 100 nM) [%] | cell viability ([3]; 1000 nM) [%] | cell viability ([3]; 10000 nM) [%] | cell viability ([4]; 1 nM) [%] | cell viability ([4]; 10 nM) [%] | cell viability ([4]; 100 nM) [%] | cell viability ([4]; 1000 nM) [%] | cell viability ([4]; 10000 nM) [%] | relative viability EC50 [5] [µM] | relative viability EC50 [6] [µM] | relative viability EC50 [7] [µM] | relative viability EC50 [8] [µM] | drug sensitivity score [9] | drug sensitivity score [10] | drug sensitivity score [11] | drug sensitivity score [12] | cell viability ([13]; 1 nM) [%] | cell viability ([13]; 10 nM) [%] | cell viability ([13]; 100 nM) [%] | cell viability ([13]; 1000 nM) [%] | cell viability ([13]; 10000 nM) [%] | relative viability EC50 [14] [µM] | drug sensitivity score [15] |
| --- | --- | --- | --- | --- | --- | --- | --- | --- | --- | --- | --- | --- | --- | --- | --- | --- | --- | --- | --- | --- | --- | --- | --- | --- | --- | --- | --- | --- | --- | --- | --- | --- | --- | --- | --- |
| O=C(c1ccc(F)cc1)C1CCN(CCn2c(=S)[nH]c3ccccc3c2=O)CC1 [altanserin] | 103 | 82.7 | 94.2 | 89 | 90.6 | 104 | 103 | 112 | 97.3 | 111 | 108 | 107 | 88.2 | 96 | 86.4 | 98.2 | 96.7 | 103 | 96.5 | 97.1 | > 10 | > 10 | > 10 | > 10 | 0.2 | 0 | 1.7 | 0 |  |  |  |  |  |  |  |
| CC(=O)c1cc([N+](=O)[O-])c(Sc2cccc(Cl)c2Cl)s1 [P5091] | 100 | 90 | 98.8 | 87.2 | 52.1 | 110 | 93.3 | 93.5 | 96.9 | 106 | 95.7 | 97.9 | 93.3 | 105 | 93.7 | 95.9 | 97.3 | 97.9 | 96.9 | 60.4 |  | > 10 | > 10 |  | 4.5 | 0 | 0 | 2.4 | 99.4 | 97.5 | 97.2 | 99.7 | 90.4 | > 10 | 0 |
| O=C(c1ccccn1)c1cnn2c(-c3ccncc3)ccnc12 [ocinaplon] |  |  |  |  |  | 98.7 | 93.6 | 104 | 95.7 | 107 | 108 | 98.7 | 107 | 93.5 | 95.1 | 94 | 103 | 99.2 | 102 | 99.2 |  | > 10 | > 10 | > 10 |  | 0 | 0 | 0 | 104 | 99.2 | 100 | 102 | 102 | > 10 | 0 |
| COc1cc2ncc(-c3ccccc3)nc2cc1OC [tyrphostin-AG-1296] | 92.7 | 104 | 91.6 | 96.2 | 95.4 | 102 | 86.2 | 91.3 | 84.8 | 100 | 107 | 108 | 98.1 | 106 | 95.8 |  |  |  |  |  | > 10 | > 10 | > 10 |  | 0 | 0 | 0 |  | 95.4 | 99.8 | 96.3 | 98 | 99.5 | > 10 | 0 |
| O=C(Cc1ccc(-c2ccccc2)cc1)Nc1ccccn1 [difenpiramide] | 98.4 | 107 | 100 | 107 | 82.9 | 107 | 99.3 | 96.9 | 96.4 | 102 | 117 | 118 | 109 | 110 | 43.6 |  |  |  |  |  | > 10 | > 10 | 3.89 |  | 0.2 | 0 | 2.4 |  | 106 | 111 | 104 | 103 | 98.5 | > 10 | 0 |
| CC(C)CC(=O)Nc1n[nH]c2c1CN(C(=O)C1CCN(C)CC1)C2(C)C | 99.1 | 98.9 | 85.6 | 76.9 | 51 | 98.7 | 90.7 | 93.6 | 89.6 | 37.6 | 103 | 115 | 102 | 51.9 | 9.7 | 101 | 102 | 94 | 68.7 | 15 |  | 1.89 | 0.95 | 1.32 | 5.8 | 5.2 | 10.9 | 8.5 | 103 | 106 | 104 | 100 | 85.7 | > 10 | 0.2 |
| COc1ccc2[nH]c([S+]([O-])Cc3ncc(C)c(OC)c3C)nc2n1 (stereo unspecified) [tenatoprazole] |  |  |  |  |  | 109 | 114 | 103 | 96.6 | 105 | 101 | 113 | 104 | 106 | 97.7 |  |  |  |  |  |  | > 10 | > 10 |  |  | 0 | 0 |  |  |  |  |  |  |  |  |
| O=C(O)c1cc(N2N=C(C(F)(F)F)/C(=C/c3ccc(-c4ccccc4)o3)C2=O)ccc1Cl [EN460] | 101 | 95.2 | 101 | 97.8 | 96.3 | 102 | 89.9 | 97.6 | 92.6 | 100 | 106 | 97.9 | 101 | 105 | 92.1 | 101 | 102 | 97.9 | 98.6 | 100 | > 10 | > 10 | > 10 | > 10 | 0 | 0 | 0 | 0 |  |  |  |  |  |  |  |
| Cc1nc(C)c(-c2ccc(C3CCC(CC(=O)O)CC3)cc2)nc1C(N)=O (stereo unspecified) [AZD7687] | 116 | 99.6 | 97.7 | 102 | 86.2 | 104 | 104 | 98.2 | 96.7 | 105 | 105 | 104 | 109 | 102 | 92.1 |  |  |  |  |  | > 10 | > 10 | > 10 |  | 0.1 | 0 | 0 |  | 103 | 100 | 97.3 | 99.9 | 98.5 | > 10 | 0 |
| Cc1cc(CCCOc2c(C)cc(-c3noc(C(F)(F)F)n3)cc2C)on1 [pleconaril] | 96.6 | 102 | 103 | 102 | 105 | 97.8 | 93.7 | 96 | 90.3 | 93.9 | 98.6 | 94.2 | 102 | 103 | 112 |  |  |  |  |  | > 10 | > 10 | > 10 |  | 0 | 0 | 0 |  | 94.2 | 96.8 | 91.6 | 92.5 | 98 | > 10 | 0 |
| CC(=O)Nc1ccc(OCC(O)CNC(C)C)cc1 (stereo unspecified) [practolol] | 107 | 93.5 | 81.2 | 91.7 | 92 | 108 | 114 | 111 | 100 | 99.7 | 94.1 | 105 | 97.3 | 109 | 87.3 |  |  |  |  |  | > 10 | > 10 | > 10 |  | 0.4 | 0 | 0 |  | 110 | 102 | 106 | 106 | 93.7 | > 10 | 0 |
| NC(=O)c1cccnc1 [nicotinamide] | 100 | 107 | 94.9 | 99.2 | 101 | 107 | 114 | 120 | 110 | 94.1 | 114 | 103 | 101 | 101 | 90.2 |  |  |  |  |  | > 10 | > 10 | > 10 |  | 0 | 0 | 0 |  | 107 | 108 | 102 | 104 | 99.5 | > 10 | 0 |
| COC(=O)Nc1nc2cc(Sc3ccccc3)ccc2[nH]1 [fenbendazole] | 94.2 | 95.8 | 104 | 81.3 | 66.2 | 98.1 | 86.1 | 97.7 | 83.6 | 86.4 | 103 | 105 | 93.3 | 79.1 | 41 | 103 | 97.8 | 101 | 83.5 | 61.7 |  | > 10 | 1.39 |  | 3.8 | 1 | 5.6 | 4.1 | 105 | 108 | 104 | 90.2 | 46.7 | 1.81 | 4.5 |
| O=c1cc(-c2ccccc2)oc2cc(O)c(O)c(O)c12 [baicalein] | 96.2 | 99.7 | 96.9 | 99.2 | 77.1 | 105 | 101 | 103 | 103 | 87.5 | 92.1 | 102 | 90.8 | 101 | 104 | 99.9 | 97.5 | 101 | 95.2 | 62.6 | > 10 | > 10 | > 10 |  | 0.9 | 0 | 0 | 2.6 | 91.4 | 98.3 | 93.1 | 97 | 104 | > 10 | 0 |
| CC(C)N(CCC(=O)c1ccc2ccccc2c1)Cc1ccccc1 | 90.3 | 94.8 | 94.4 | 97.7 | 99.5 | 97.6 | 102 | 102 | 97.5 | 92.1 | 98.4 | 91.6 | 99 | 101 | 66.6 | 99.2 | 98.2 | 93.5 | 96.7 | 95 | > 10 | > 10 |  | > 10 | 0 | 0 | 1.4 | 0 | 96.2 | 98.7 | 99 | 96.3 | 87 | > 10 | 0.3 |
| CCCCCCCC/C=C/CCCCCCCC(=O)OC[C@H]1O[C@@H](n2ccc(N)nc2=O)C(F)(F)[C@@H]1O [gemcitabine-elaidate] | 95.3 | 96.1 | 79.7 | 68.5 | 67.6 | 106 | 90.1 | 69.1 | 57.8 | 35.2 | 104 | 57.6 | 36.5 | 35.8 | 38.5 | 105 | 110 | 70.2 | 77 | 70.7 |  | 0.179 | 0.0077 |  | 7.6 | 12.3 | 25.2 | 8.2 | 105 | 104 | 55.6 | 61.5 | 58.3 |  | 13.4 |
